Reference: ChEMBL document CHEMBL1201862, “PubChem BioAssay data set” (2004)
Activity calls are given as the source filed them.

Columns and labels:
[1] = biological target: T1, Serine/threonine-protein phosphatase (Candida dubliniensis (strain CD36 / CBS 7987 / NCPF 3949 / NRRLY-17841) (Yeast), UniProt B9W6M3); test: calcineurin pathway inhibitors in yeast reporter, dose response, S. cerevisiae, CDRE-lacZ, luminescence, secondary (AID 2388); type: functional, cell-based;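 note: yeast reporter cells carrying a calcineurin-responsive lacZ construct stimulated with calcium chloride; luminescent beta-galactosidase reporter signal in whole cells rather than isolated phosphatase activity; potency for inhibition where a drop in reporter signal means calcineurin blockade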
T1 sequence (B9W6M3 whole entry): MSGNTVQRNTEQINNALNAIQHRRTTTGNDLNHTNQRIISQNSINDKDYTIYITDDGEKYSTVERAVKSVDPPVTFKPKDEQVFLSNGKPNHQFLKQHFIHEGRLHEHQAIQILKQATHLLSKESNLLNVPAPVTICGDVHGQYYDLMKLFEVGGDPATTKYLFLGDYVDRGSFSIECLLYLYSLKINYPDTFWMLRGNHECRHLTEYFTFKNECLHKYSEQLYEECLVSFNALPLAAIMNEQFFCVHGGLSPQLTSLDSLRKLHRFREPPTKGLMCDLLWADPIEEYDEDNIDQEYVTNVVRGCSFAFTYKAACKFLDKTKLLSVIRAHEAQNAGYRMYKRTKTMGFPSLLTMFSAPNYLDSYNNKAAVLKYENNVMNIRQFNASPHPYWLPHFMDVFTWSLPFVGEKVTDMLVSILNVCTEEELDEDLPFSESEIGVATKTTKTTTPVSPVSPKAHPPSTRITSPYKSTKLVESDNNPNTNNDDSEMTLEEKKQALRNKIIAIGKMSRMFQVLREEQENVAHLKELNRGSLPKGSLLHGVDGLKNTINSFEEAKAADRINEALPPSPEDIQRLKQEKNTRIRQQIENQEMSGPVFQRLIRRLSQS

[2] = biological target: T2, Histone-lysine N-methyltransferase NSD2 (Homo sapiens, UniProt O96028); type: biochemical
T2 sequence (O96028 whole entry): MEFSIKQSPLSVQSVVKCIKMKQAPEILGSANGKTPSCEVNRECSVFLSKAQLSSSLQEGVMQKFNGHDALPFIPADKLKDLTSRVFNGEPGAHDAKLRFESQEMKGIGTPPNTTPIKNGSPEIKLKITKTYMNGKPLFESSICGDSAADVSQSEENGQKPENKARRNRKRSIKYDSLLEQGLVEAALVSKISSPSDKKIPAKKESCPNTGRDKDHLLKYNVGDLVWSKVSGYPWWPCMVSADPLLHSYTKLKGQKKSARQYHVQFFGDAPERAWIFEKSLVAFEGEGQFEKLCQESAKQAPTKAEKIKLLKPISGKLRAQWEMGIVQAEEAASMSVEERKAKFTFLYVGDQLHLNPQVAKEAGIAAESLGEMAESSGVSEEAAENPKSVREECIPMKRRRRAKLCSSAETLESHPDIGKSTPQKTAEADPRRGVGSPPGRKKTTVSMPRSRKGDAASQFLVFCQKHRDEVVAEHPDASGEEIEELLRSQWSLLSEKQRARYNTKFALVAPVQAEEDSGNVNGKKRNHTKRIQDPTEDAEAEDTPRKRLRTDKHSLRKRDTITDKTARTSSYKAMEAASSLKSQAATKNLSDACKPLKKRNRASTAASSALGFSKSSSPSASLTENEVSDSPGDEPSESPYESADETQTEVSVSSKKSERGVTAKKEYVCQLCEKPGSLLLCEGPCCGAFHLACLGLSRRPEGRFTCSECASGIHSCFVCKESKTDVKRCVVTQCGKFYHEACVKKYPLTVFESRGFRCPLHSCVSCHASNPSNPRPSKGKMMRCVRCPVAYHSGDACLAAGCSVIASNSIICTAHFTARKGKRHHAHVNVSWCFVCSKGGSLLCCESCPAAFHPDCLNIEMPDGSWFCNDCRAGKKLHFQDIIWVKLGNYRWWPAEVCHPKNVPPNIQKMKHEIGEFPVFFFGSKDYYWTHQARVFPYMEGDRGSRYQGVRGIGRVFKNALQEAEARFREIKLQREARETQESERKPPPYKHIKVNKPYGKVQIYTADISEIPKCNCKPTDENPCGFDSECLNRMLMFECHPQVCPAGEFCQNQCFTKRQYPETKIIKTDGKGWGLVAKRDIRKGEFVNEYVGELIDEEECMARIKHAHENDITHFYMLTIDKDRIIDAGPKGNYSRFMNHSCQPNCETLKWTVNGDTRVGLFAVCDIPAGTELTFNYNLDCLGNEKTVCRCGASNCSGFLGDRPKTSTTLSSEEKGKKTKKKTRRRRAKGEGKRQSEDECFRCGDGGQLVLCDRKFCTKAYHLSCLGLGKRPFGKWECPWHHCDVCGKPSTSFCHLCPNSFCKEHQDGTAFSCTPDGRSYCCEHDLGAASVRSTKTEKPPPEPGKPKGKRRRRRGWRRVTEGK

[3] = growth suppression of PTEN-null colon cells, dose response, cell-based, HCT116 PTEN knockout (AID 1047); type: functional;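 note: HCT116 colon tumor cells with PTEN knocked out; cells exposed to compound for 60 hours before readout; potency for loss of cell viability measured by luminescence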
[4] = biological target: Mitochondrial peptide methionine sulfoxide reductase (Bos taurus, UniProt P54149); type: functional;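 note: absorbance read-out, biochemical high-throughput dose-response screen for MsrA inhibitors, confirmatory; recombinant bovine MsrA coupled to E. coli TrxB with NADPH and selenocystamine; potency is for inhibitors of MsrA activity on DMSO substrate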
Chain of Mitochondrial peptide methionine sulfoxide reductase (P54149 whole entry): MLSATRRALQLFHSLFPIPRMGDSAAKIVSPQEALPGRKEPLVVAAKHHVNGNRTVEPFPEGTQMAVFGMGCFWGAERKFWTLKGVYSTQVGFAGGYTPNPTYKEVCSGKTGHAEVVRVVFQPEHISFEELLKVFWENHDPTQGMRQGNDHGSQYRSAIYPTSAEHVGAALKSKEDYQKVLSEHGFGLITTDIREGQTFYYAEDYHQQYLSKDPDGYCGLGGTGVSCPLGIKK

Streptococcus = test: Group A Streptococcus viability loss, dose response, counter-screen for streptokinase expression inhibitor project, luminescence, BacTiterGlo (AID 1915); type: functional, organism-based;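 note: potency for reduction of bacterial viability or growth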
[5] = biological target: Heat shock protein HSP 90-alpha (Homo sapiens, UniProt P07900); test: Luminescence-based dose response biochemical high throughput screening assay for inhibitors of the Heat Shock Protein 90 (HSP90). [Related pubchem assays: 1831 (Summary AID.), 1846 (Confirmation screen.), 1789 (Primary screen.)]

Compound	EC50 [1]	AC50 [2]	EC50 [3]	IC50 [4]	EC50 (Streptococcus)	IC50 [5]
Cc1ccc(NC2=CC(=O)C(=O)c3ccccc32)cc1	> 180 µM (inactive)	13 µM (active)	6.79 µM (active)			
O=C(O)c1ccc(S(=O)(=O)/N=C2\C=C(Nc3ccccc3F)C(=O)c3ccccc32)cc1				14.2 µM (inactive)	4.05 µM (active)	0.638 µM (active)
